Measured values as given in publication PMC11790914, “Chemogenomics for steroid hormone receptors (NR3)” (Communications Chemistry, 2025).
“And” between values parts separate entries of the source, which are not always exact repeats. Identical values can stand only once.

Experiments:
[1] = target: T1, ABL1 (Homo sapiens, UniProt P00519); assay: Liability panel screening by DSF: ABL1; format: binding; conditions: DSF, 20 µM, n=2; read-out: Mean ΔTM ABL1
T1 construct: made in house
Procedure, shortened: (§1)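 Thermal shift: in-house recombinant protein at 2 µM in 10 mM HEPES pH 7.5 with 500 mM NaCl, SYPRO Orange 1:1000, heated at 3 °C/min to 85 °C in technical duplicates. Tm is the Boltzmann inflection point, reported as ∆Tm in K.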

[2] = target: T2, AURKA (Homo sapiens, UniProt O14965); assay: Liability panel screening by DSF: AURKA; format: binding; conditions: DSF, 20 µM, n=2; read-out: Mean ΔTM AURKA
T2 construct: made in house
T2 sequence (O14965 1-403): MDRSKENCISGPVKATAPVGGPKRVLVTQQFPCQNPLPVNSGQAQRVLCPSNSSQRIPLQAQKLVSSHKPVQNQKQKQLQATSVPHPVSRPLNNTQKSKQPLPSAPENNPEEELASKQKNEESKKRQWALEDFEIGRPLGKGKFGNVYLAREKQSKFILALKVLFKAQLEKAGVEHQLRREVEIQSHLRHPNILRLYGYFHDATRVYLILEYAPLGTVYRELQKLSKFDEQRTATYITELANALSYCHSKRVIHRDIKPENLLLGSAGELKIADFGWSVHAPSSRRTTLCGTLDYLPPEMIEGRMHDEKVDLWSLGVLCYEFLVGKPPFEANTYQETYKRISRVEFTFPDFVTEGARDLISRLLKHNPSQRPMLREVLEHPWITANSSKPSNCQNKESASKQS
Procedure, shortened: as §1

[3] = target: T3, CDK2 (Homo sapiens, UniProt P24941); assay: Liability panel screening by DSF: CDK2; format: binding; conditions: DSF, 20 µM, n=2; read-out: Mean ΔTM CDK2
T3 construct: made in house
Procedure, shortened: as §1

[4] = target: T4, FGFR3 (Homo sapiens, UniProt P22607); assay: Liability panel screening by DSF: FGFR3; format: binding; conditions: DSF, 20 µM, n=2; read-out: Mean ΔTM FGFR3
T4 construct: made in house
T4 sequence (P22607 23-806, species assumed): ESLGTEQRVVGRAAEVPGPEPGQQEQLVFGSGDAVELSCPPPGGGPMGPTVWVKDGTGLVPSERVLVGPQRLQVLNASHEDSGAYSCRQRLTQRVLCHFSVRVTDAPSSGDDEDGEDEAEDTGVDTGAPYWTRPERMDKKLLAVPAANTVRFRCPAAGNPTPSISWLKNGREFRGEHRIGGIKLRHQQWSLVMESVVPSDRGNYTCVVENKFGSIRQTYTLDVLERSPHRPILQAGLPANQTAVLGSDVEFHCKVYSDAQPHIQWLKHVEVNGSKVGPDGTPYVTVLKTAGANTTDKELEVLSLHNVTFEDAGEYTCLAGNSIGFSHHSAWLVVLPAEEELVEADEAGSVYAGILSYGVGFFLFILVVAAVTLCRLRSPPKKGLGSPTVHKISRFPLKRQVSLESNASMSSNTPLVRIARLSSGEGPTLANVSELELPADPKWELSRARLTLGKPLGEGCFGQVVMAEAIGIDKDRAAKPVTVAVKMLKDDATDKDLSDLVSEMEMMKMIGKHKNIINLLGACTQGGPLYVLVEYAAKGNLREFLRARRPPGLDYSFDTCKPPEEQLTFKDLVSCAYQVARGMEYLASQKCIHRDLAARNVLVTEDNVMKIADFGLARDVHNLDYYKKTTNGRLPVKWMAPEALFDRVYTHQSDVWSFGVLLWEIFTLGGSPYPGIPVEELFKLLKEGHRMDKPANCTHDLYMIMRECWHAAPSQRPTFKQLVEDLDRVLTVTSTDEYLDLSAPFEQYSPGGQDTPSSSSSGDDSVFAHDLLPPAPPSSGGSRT
Procedure, shortened: as §1

[5] = target: T5, GSK3B (Homo sapiens, UniProt P49841); assay: Liability panel screening by DSF: GSK3B; format: binding; conditions: DSF, 20 µM, n=2; read-out: Mean ΔTM GSK3B
T5 construct: made in house
T5 sequence (P49841 whole entry, species assumed): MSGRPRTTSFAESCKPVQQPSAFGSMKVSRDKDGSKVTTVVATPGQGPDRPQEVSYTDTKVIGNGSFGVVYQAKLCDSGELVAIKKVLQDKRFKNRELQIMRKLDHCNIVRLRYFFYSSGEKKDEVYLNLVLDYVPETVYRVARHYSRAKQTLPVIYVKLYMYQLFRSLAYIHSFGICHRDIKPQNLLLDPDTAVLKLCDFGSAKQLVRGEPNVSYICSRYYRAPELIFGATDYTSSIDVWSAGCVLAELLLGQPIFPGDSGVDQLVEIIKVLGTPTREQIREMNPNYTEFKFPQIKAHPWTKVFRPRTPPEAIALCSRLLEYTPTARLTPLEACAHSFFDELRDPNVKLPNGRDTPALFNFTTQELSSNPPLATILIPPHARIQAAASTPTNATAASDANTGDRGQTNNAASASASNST

[6] = target: T6, BRD4 (Homo sapiens, UniProt O60885); assay: Liability panel screening by DSF: BRD4; format: binding; conditions: DSF, 20 µM, n=2; read-out: Mean ΔTM BRD4
T6 construct: This panel comprised ten highly ligandable kinases and bromodomains; made in house
Procedure, shortened: as §1

[7] = target: T7, BRPF1 (Homo sapiens, UniProt P55201); assay: Liability panel screening by DSF: BRPF1; format: binding; conditions: DSF, 20 µM, n=2; read-out: Mean ΔTM BRPF1
T7 construct: This panel comprised ten highly ligandable kinases and bromodomains; made in house
T7 sequence (P55201 628-732 limits assumed): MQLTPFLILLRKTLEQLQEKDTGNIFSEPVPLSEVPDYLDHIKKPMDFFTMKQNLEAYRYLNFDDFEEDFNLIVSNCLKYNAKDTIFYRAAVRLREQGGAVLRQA
Procedure, shortened: as §1

[8] = target: T8, CSNK1D (Homo sapiens, UniProt P48730); assay: Liability panel screening by DSF: CSNK1D; format: binding; conditions: DSF, 20 µM, n=2; read-out: Mean ΔTM CSNK1D
T8 construct: made in house
T8 sequence (P48730 whole entry, species assumed): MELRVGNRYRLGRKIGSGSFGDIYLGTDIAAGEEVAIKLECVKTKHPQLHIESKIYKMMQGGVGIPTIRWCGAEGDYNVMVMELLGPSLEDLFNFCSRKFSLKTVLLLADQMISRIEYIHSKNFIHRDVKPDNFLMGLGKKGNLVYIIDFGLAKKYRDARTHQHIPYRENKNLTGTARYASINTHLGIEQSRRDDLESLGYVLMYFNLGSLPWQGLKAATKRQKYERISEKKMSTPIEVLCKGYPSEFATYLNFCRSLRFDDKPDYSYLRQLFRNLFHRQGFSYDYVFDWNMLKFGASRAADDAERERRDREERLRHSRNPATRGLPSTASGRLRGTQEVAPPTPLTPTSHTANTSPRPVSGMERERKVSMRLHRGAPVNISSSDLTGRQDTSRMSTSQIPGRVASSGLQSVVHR
Procedure, shortened: as §1

[9] = target: T9, MAPK1 (Homo sapiens, UniProt P28482); assay: Liability panel screening by DSF: MAPK1; format: binding; conditions: DSF, 20 µM, n=2; read-out: Mean ΔTM MAPK1
T9 construct: made in house
T9 sequence (P28482 whole entry, species assumed): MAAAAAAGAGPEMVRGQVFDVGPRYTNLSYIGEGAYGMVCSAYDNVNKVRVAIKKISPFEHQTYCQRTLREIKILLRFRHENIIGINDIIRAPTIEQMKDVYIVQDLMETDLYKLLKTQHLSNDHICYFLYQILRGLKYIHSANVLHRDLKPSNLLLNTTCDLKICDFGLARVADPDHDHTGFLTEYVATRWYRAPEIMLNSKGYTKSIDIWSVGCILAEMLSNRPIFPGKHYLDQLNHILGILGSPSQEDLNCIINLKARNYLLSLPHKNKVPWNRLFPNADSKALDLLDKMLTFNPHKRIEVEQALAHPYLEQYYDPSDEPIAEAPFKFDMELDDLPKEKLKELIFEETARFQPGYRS
Procedure, shortened: as §1

[10] = target: T10, TRIM24 (Homo sapiens, UniProt O15164); assay: Liability panel screening by DSF: TRIM24; format: binding; conditions: DSF, 20 µM, n=2; read-out: Mean ΔTM TRIM24
T10 construct: This panel comprised ten highly ligandable kinases and bromodomains; made in house
T10 sequence (O15164 899-1004 limits assumed): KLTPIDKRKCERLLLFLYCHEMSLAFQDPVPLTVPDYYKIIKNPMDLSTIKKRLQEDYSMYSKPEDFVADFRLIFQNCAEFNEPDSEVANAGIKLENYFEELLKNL
Procedure, shortened: as §1

[11] = tested on: NR3C1 (GR); conditions: (lit.); ref Supplementary Table 1; read-out: Potency [nM] EC50, NR3C1 (GR); cited from earlier work
[12] = other targets with annotated bioactivities at ≤10 µM in previously published dataset; cited from earlier work
[13] = tested on: HEK293T cells; assay: Cytotoxicity: metabolic activity (WST-8 / CCK-8 assay); conditions: 1 µM, single replicates
[14] = tested on: HEK293T cells; assay: Cytotoxicity: growth-rate (change in confluence over 24 h); conditions: 1 µM, normalized to 0.1% DMSO control, single replicates (n=1...)
[15] = tested on: HEK293T cells; assay: Cytotoxicity: apoptosis induction (caspase-3/7 DEVD fluorogenic DNA dye); conditions: 1 µM, single replicates
[16] = tested on: HEK293T cells; assay: Cytotoxicity: necrosis induction (red fluorescent dye for permeable plasma membranes); format: cell-based; conditions: 1 µM, 24 h, necrotic cell count normalized to 0.1% DMSO, single replicates;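 note: compounds applied in DMEM high glucose with 0.1% FCS and 0.1% DMSO, necrotic HEK293T cells counted by red staining of cells whose plasma membranes had become permeable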
[17] = tested on: Gal4-VP16; format: cell-based; conditions: 1 µM; vs. DMSO ctrl; single replicates n=1-3
[18] = tested on: NF-κB activity in HEK293 NF-κB reporter cells; assay: NF-kB activity assay (GFP reporter, ionomycin/PMA); format: cell-based; conditions: n=3
Procedure, shortened: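 Reporter readout: GFP-expressing cells normalized to confluence, imaged every 90 min across 24 h after ionomycin (100 ng/mL)/PMA (10 ng/mL) stimulation of HEK293 cells pre-treated 4 h with compound (0.1% DMSO); triplicate independent experiments.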

[19] = tested on: ATF6 activity in Hela ATF6 reporter cells; assay: Endoplasmic reticulum stress assay (ATF6 Renilla luciferase reporter, tunicamycin); format: cell-based; conditions: Homo sapiens, HeLa, 1 µM, single replicates n=1 to n=5; read-out: ER stress [rel. ATF6 activity]
Procedure, shortened: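 ER stress was induced by 100 ng/mL tunicamycin added 4 h after compound (0.1% DMSO) to HeLa ATF6 reporter cells. After 18 h more, Renilla luciferase signal was read and expressed relative to DMSO control, n=5 biological replicates.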

[20] = HEK293T, 24 h, WST-8, normalized to 0.1% DMSO
[21] = HEK293T, 24 h, apoptotic cell count normalized to 0.1% DMSO

T1 sequence (P00519 whole entry, species assumed): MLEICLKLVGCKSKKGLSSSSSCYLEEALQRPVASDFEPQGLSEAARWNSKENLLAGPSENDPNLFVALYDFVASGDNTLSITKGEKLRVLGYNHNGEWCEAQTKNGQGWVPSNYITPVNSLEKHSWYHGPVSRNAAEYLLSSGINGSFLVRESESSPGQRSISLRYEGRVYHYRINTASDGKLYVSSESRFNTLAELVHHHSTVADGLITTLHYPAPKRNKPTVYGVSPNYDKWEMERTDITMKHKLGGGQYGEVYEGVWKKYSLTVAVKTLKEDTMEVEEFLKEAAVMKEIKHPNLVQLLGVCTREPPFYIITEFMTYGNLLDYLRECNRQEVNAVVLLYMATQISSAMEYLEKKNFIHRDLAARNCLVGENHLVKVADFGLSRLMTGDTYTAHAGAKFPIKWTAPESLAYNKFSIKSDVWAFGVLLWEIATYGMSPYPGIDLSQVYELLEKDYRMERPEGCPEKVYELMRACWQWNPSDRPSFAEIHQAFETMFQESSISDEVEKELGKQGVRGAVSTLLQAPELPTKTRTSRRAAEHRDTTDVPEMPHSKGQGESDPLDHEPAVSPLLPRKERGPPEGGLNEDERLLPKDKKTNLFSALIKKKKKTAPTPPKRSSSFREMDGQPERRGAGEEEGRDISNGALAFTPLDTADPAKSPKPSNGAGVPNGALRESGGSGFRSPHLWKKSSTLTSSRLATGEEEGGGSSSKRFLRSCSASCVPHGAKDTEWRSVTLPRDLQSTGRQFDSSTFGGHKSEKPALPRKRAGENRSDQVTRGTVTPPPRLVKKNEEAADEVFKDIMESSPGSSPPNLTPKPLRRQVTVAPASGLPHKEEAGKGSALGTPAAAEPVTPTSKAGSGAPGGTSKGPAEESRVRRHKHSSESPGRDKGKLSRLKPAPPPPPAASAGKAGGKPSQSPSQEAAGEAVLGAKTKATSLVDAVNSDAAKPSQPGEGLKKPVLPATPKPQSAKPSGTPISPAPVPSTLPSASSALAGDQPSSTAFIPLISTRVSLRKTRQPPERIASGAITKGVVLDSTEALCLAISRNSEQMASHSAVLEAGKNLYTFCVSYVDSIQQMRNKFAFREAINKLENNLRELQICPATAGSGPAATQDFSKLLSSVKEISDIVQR

| SMILES | ΔTm at 20 µM [1] [°C] | ΔTm at 20 µM [2] [°C] | ΔTm at 20 µM [3] [°C] | ΔTm at 20 µM [4] [°C] | ΔTm at 20 µM [5] [°C] | ΔTm at 20 µM [6] [°C] | ΔTm at 20 µM [7] [°C] | ΔTm at 20 µM [8] [°C] | ΔTm at 20 µM [9] [°C] | ΔTm at 20 µM [10] [°C] | Growth rate [GR] [14] | Necrosis induction [NI] [16] | VP16 control [fold reporter gene activity] [17] | Mean NFκB response ([18]; 1 µM, 1,5 h) | Mean NFκB response ([18]; 1 µM, 4,5 h) | Mean NFκB response ([18]; 1 µM, 7,5 h) | Mean NFκB response ([18]; 1 µM, 10,5 h) | Mean NFκB response ([18]; 1 µM, 13,5 h) | Mean NFκB response ([18]; 1 µM, 16,6 h) | Mean NFκB response ([18]; 1 µM, 19,5 h) | further results |
| --- | --- | --- | --- | --- | --- | --- | --- | --- | --- | --- | --- | --- | --- | --- | --- | --- | --- | --- | --- | --- | --- |
| CCC(=O)O[C@]1(C(=O)SCF)[C@H](C)C[C@H]2[C@@H]3C[C@H](F)C4=CC(=O)C=C[C@]4(C)[C@@]3(F)[C@@H](O)C[C@@]21C [Fluticasone propionate] | 0.19 | 0.09 | 0.15 | 0.32 | -0.55 | -0.24 | -0.69 | -0.0152 | -0.034 | -0.08 | 0.78 and 1.00 and 1.07 and 0.88 (2×) and 0.82 | – | – | – | – | – | – | – | – | – | EC50 [11]: 1 nM; Reason for exclusion: number of annotated off-targets [12]: > 5 off-targets; Metabolic activity [MA] ([13]; DMSO 0.1% = 1.00): 0.94 and 0.83 and 1.03 and 1.06 and 1.10 and 1.04; Apoptosis induction [AI] ([15]; DMSO 0.1% = 1.00): 0.81 and 1.24 |
| Oc1ccc(-c2c(-c3ccccc3)nn3c(C(F)(F)F)cc(C(F)(F)F)nc23)cc1 [PHTPP] | 2.06 | -0.53 | 0.46 | 1.15 | -0.0558 | -1.27 | -1.38 | 0.39 | -0.2 | -0.6 | 0.97 and 0.45 and 1.07 and 1.62 and 1.13 and 0.53 and 1.06 and 0.18 and 2.38 and 3.71 | 1.05 and 0.87 and 0.89 and 1.10 | 0.97 fold reporter gene activity and 1.04 fold reporter gene activity and 1.08 fold reporter gene activity | 2680.27 GFP+-cells/confluence ∙ 1000 | 3558.89 GFP+-cells/confluence ∙ 1000 | 8794.33 GFP+-cells/confluence ∙ 1000 | 18394.67 GFP+-cells/confluence ∙ 1000 | 26267.00 GFP+-cells/confluence ∙ 1000 | 32070.00 GFP+-cells/confluence ∙ 1000 | 36033.33 GFP+-cells/confluence ∙ 1000 | Mean NFκB response ([18]; 1 µM, 22,5 h): 39210.00 GFP+-cells/confluence ∙ 1000; Mean NFκB response ([18]; 1 µM, 3 h): 2926.71 GFP+-cells/confluence ∙ 1000; Mean NFκB response ([18]; 1 µM, 6 h): 4822.41 GFP+-cells/confluence ∙ 1000; Mean NFκB response ([18]; 1 µM, 9 h): 14065.00 GFP+-cells/confluence ∙ 1000; Mean NFκB response ([18]; 1 µM, 12 h): 22714.33 GFP+-cells/confluence ∙ 1000; Mean NFκB response ([18]; 1 µM, 15 h): 29343.33 GFP+-cells/confluence ∙ 1000; Mean NFκB response ([18]; 1 µM, 18 h): 34043.33 GFP+-cells/confluence ∙ 1000; Mean NFκB response ([18]; 1 µM, 21 h): 37940.00 GFP+-cells/confluence ∙ 1000; Mean NFκB response ([18]; 1 µM, 24 h): 40376.67 GFP+-cells/confluence ∙ 1000; activity at 1 µM [19]: 100%; Metabolic activity [MA] [13, 20]: 1.07 and 1.08 and 1.01 and 1.13 and 1.04 (2×) and 0.95 and 1.05; Apoptosis induction [AI] [15, 21]: 0.81 and 1.09 and 0.92 and 1.05 and 0.26 and 0.21 |
| CC(=O)O[C@]1(C(C)=O)CC[C@H]2[C@@H]3CCC4=CC(=O)CCC4=C3[C@@H](c3ccc(N(C)C)cc3)C[C@@]21C [Ulipristal acetate] | 0.29 | -1.14 | -0.32 | -0.057 | -0.83 | -2.72 | -2.65 | 0.22 | -0.0546 | -1.79 | 0.78 and 1.52 and 1.08 and 1.00 (2×) and 1.04 and 0.73 and 0.60 and 1.80 and 3.99 | 1.05 and 1.11 and 0.95 and 0.92 | 1.05 fold reporter gene activity and 1.09 fold reporter gene activity and 1.04 fold reporter gene activity | 2644.31 GFP+-cells/confluence ∙ 1000 | 3036.67 GFP+-cells/confluence ∙ 1000 | 6043.33 GFP+-cells/confluence ∙ 1000 | 16570.00 GFP+-cells/confluence ∙ 1000 | 25096.67 GFP+-cells/confluence ∙ 1000 | 31636.67 GFP+-cells/confluence ∙ 1000 | 36313.33 GFP+-cells/confluence ∙ 1000 | Mean NFκB response ([18]; 1 µM, 22,5 h): 39910.00 GFP+-cells/confluence ∙ 1000; Mean NFκB response ([18]; 1 µM, 3 h): 2710.00 GFP+-cells/confluence ∙ 1000; Mean NFκB response ([18]; 1 µM, 6 h): 3846.67 GFP+-cells/confluence ∙ 1000; Mean NFκB response ([18]; 1 µM, 9 h): 10723.33 GFP+-cells/confluence ∙ 1000; Mean NFκB response ([18]; 1 µM, 12 h): 21213.33 GFP+-cells/confluence ∙ 1000; Mean NFκB response ([18]; 1 µM, 15 h): 28280.00 GFP+-cells/confluence ∙ 1000; Mean NFκB response ([18]; 1 µM, 18 h): 34176.67 GFP+-cells/confluence ∙ 1000; Mean NFκB response ([18]; 1 µM, 21 h): 38276.67 GFP+-cells/confluence ∙ 1000; Mean NFκB response ([18]; 1 µM, 24 h): 41050.00 GFP+-cells/confluence ∙ 1000; activity at 1 µM [19]: 102%; Metabolic activity [MA] [13, 20]: 1.04 and 0.97 and 0.99 (2×) and 1.03 (2×) and 0.96 and 1.08; Apoptosis induction [AI] [15, 21]: 0.98 (2×) and 0.83 and 1.37 and 1.27 and 0.92 |
